# Assay results as given in US8134015B2, “Compound inhibiting in vivo phosphorous transport and medicine containing the same” (Kyowa Hakko Kirin Co., Ltd., priority 2003, dated 2012).
# Molecular target: T1, rat NaPi-2b (Rattus norvegicus, UniProt Q9JJ09)
# T1 construct: expressed in transfected cells; host or cells: Xenopus oocytes injected with cRNA
# T1 sequence (Q9JJ09 1-695): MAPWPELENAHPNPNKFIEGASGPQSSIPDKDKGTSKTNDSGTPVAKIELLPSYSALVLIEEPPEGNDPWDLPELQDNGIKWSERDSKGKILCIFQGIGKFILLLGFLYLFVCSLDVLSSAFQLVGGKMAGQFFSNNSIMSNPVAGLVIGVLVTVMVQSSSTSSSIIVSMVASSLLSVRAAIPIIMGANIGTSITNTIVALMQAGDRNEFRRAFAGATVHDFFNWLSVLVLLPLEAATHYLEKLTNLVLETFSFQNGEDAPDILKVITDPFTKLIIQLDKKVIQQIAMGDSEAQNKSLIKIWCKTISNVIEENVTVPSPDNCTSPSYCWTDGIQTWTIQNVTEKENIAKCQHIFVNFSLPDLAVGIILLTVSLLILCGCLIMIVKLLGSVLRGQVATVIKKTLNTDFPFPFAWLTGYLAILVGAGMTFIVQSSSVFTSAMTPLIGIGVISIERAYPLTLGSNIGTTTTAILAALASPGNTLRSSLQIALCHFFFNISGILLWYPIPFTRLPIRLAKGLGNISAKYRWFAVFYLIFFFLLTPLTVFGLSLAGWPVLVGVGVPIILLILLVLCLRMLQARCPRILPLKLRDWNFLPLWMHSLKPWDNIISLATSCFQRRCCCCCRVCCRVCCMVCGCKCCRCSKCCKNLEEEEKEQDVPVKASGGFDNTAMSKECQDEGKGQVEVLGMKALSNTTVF
# Experiment: Sodium-dependent phosphate uptake of Xenopus oocytes which expressed NaPi-2b (32P)
# Format: cell-based
# Details: Xenopus oocytes expressing rat NaPi-2b, 32P radioactive phosphorus; read-out: IC50 (phosphate uptake inhibitory activity)
# In short: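 Steps: rat NaPi-2b cDNA cloned from small intestine; cRNA made and injected into oocytes; 2-day expression; 32P phosphate uptake with compound; % inhibition at 300/100 μM taken from one curve.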
row,IC50 [µM],Structure (SMILES)
1,15.5,"O=C(Nc1ccc(Br)cc1C(=O)N/N=C/c1cccc(F)c1)c1ccc(CNCCN2CCOCC2)cc1 [Compound 713, N-[4-Bromo-2-(3-fluoro-benzylidene-hydrazinocarbonyl)-phenyl]-4-[(2-morpholin-4-yl-ethylamino)-methyl]-benzamide]"
2,3.52,"O=C(Nc1ccc(Br)cc1C(=O)N/N=C/c1ccc(Cl)c(C(F)(F)F)c1)c1ccc(CNCCN2CCOCC2)cc1 [Compound 714, N-[4-Bromo-2-(4-chloro-3-trifluoromethyl-benzylidene-hydrazinocarbonyl)-phenyl]-4-[(2-morpholin-4-yl-ethylamino)-methyl]-benzamide]"
3,6.91,"Cc1cccc(/C=N/NC(=O)c2cc(Br)ccc2NC(=O)c2ccc(CN(CC(C)O)CC(C)O)cc2)c1 (stereo not shown) [Compound 718, 4-{[Bis-(2-hydroxy-propyl)-amino]-methyl}-N-[4-bromo-2-(3-methyl-benzylidene-hydrazinocarbonyl)-phenyl]-benzamide]"
4,9.59,"CC(O)CN(Cc1ccc(C(=O)Nc2ccc(Br)cc2C(=O)N/N=C/c2ccc(F)cc2)cc1)CC(C)O (stereo not shown) [Compound 719, 4-{[Bis-(2-hydroxy-propyl)-amino]-methyl}-N-[4-bromo-2-(4-fluoro-benzylidene-hydrazinocarbonyl)-phenyl]-benzamide]"
5,3.51,"CC(O)CN(Cc1ccc(C(=O)Nc2ccc(Br)cc2C(=O)N/N=C/c2cccc(F)c2)cc1)CC(C)O (stereo not shown) [Compound 720, 4-{[Bis-(2-hydroxy-propyl)-amino]-methyl}-N-[4-bromo-2-(3-fluoro-benzylidene-hydrazinocarbonyl)-phenyl]-benzamide]"
6,22.3,"CC(O)CN(Cc1ccc(C(=O)Nc2ccc(Br)cc2C(=O)N/N=C/c2ccc(Cl)c(C(F)(F)F)c2)cc1)CC(C)O (stereo not shown) [Compound 721, 4-{[Bis-(2-hydroxy-propyl)-amino]-methyl}-N-[4-bromo-2-(4-chloro-3-trifluoromethyl-benzylidene-hydrazinocarbonyl)-phenyl]-benzamide]"
7,12.8,"COc1ccc(/C=N/NC(=O)c2cc(Br)ccc2NC(=O)c2ccc(CN(CC(C)O)CC(C)O)cc2)cc1 (stereo not shown) [Compound 722, 4-{[Bis-(2-hydroxy-propyl)-amino]-methyl}-N-[4-bromo-2-(4-methoxy-benzylidene-hydrazinocarbonyl)-phenyl]-benzamide]"

# Same assay, conditions: phosphate uptake, oocytes expressing rat NaPi-2b; 300 μM, determined from inhibition curve
Structure (SMILES),inhibition at 300 µM [%],Inhibition (%) (300 μM)
"CN(CCCN(C)Cc1cccc(C(=O)Nc2ccc(Cl)cc2C(=O)N/N=C/c2ccc(F)cc2)c1)Cc1cccc(C(=O)Nc2ccc(Cl)cc2C(=O)N/N=C/c2ccc(F)cc2)c1 [Compound 701, N1-[4-Chloro-2-({2-[(E)-1-(4-fluorophenyl)methylidene]-hydrazino}carbonyl}phenyl}-3-{[{3-[(3-{[4-chloro-2-([2-[(E)-1-(4-fluorophenyl)methylidene]hydrazino}carbonyl}anilino}carbonyl}benzyl}-(methyl)amino)propyl)(methyl)amino]methyl]benzamide]",54,–
"Cc1ccc(/C=N/NC(=O)c2cc(Cl)ccc2NC(=O)c2cccc(CN(C)CCCN(C)Cc3cccc(C(=O)Nc4ccc(Cl)cc4C(=O)N/N=C/c4ccc(C)cc4)c3)c2)cc1 [Compound 702, N1-[4-Chloro-2-({2-[(E)-1-(4-methylphenyl)methylidene]-hydrazino}carbonyl}phenyl}-3-{[{3-[(3-{[4-chloro-2-({2-[(E)-1-(4-methylphenyl)methylidene]hydrazino}carbonyl}anilino}carbonyl}benzyl}(methyl)amino)propyl)(methyl)amino]methyl]benzamide]",49.2,–
"O=c1c2cc(Cl)ccc2nc(-c2cccc(CSCCS(=O)(=O)O)c2)n1/N=C/c1ccc(Cl)c(C(F)(F)F)c1 [Compound 703, 2-(3-{6-Chloro-3-[(4-chloro-3-trifluoromethyl-benzylidene)-amino]-4-oxo-3,4-dihydro-quinazolin-2-yl}-benzylsulfanyl)-ethanesulfonic acid]",57.9,–
"CN(CCCCCCN(C)Cc1cccc(C(=O)Nc2ccc(Cl)cc2C(=O)N/N=C/c2cccc(F)c2)c1)Cc1cccc(C(=O)Nc2ccc(Cl)cc2C(=O)N/N=C/c2cccc(F)c2)c1 [Compound 704, N1-[4-Chloro-2-({2-[(E)-1-(3-fluorophenyl)methylidene]hydrazino}carbonyl}phenyl}-3-{[{6-[(3-{[4-chloro-2-({2-[(E)-1-(3-fluorophenyl)methylidene]hydrazino}carbonyl}-anilino}carbonyl}benzyl}(methyl)amino)hexyl)(methyl)amino]methyl]-benzamide]",46.6,–
"Cc1cccc(/C=N/NC(=O)c2cc(Cl)ccc2NC(=O)c2cccc(CN(C)CCCCCCN(C)Cc3cccc(C(=O)Nc4ccc(Cl)cc4C(=O)N/N=C/c4cccc(C)c4)c3)c2)c1 [Compound 705, N1-[4-Chloro-2-({2-[(E)-1-(3-methylphenyl)methylidene]hydrazino}carbonyl}phenyl}-3-{[{6-[(3-{[4-chloro-2-({2-[(E)-1-(3-methylphenyl)methylidene]hydrazino}carbonyl}-anilino}carbonyl}benzyl}(methyl)amino)hexyl)(methyl)amino]methyl]-benzamide]",44.7,–
"Cc1ccc(/C=N/NC(=O)c2cc(Cl)ccc2NC(=O)c2cccc(CN(C)CCCCCCN(C)Cc3cccc(C(=O)Nc4ccc(Cl)cc4C(=O)N/N=C/c4ccc(C)cc4)c3)c2)cc1 [Compound 706, N1-[4-Chloro-2-({2-[(E)-1-(4-methylphenyl)methylidene]hydrazino}carbonyl}phenyl}-3-{[{6-[(3-{[4-chloro-2-({2-[(E)-1-(4-methylphenyl)methylidene]hydrazino}carbonyl}-anilino}carbonyl}benzyl}(methyl)amino)hexyl)(methyl)amino]methyl]-benzamide]",47.8,–
"Cc1csc(C(=O)N/N=C/c2ccc(Cl)c(C(F)(F)F)c2)c1NC(=O)c1cccc(CN(CC(C)O)CC(C)O)c1 (stereo not shown) [Compound 707, 3-{[Bis-(2-hydroxy-propyl)-amino]-methyl}-N-[2-(4-chloro-3-trifluoromethyl-benzylidene-hydrazinocarbonyl)-4-methyl-thiophen-3-yl]-benzamide]",41.2,–
"O=C(Nc1ccc(Cl)cc1C(=O)N/N=C/c1ccc(F)cc1)c1cccc(CSCCS(=O)(=O)O)c1 [Compound 708, 2-{3-[4-Chloro-2-(4-fluoro-benzylidene-hydrazinocarbonyl)-phenylcarbamoyl]-benzylsulfanyl}-ethanesulfonic acid]",42,–
"O=C(Nc1ccc(Cl)cc1C(=O)N/N=C/c1ccc(Cl)c(C(F)(F)F)c1)c1cccc(CSCCS(=O)(=O)O)c1 [Compound 709, 2-{3-[4-Chloro-2-(4-chloro-3-trifluoromethyl-benzylidene-hydrazinocarbonyl)-phenylcarbamoyl]-benzylsulfanyl}-ethanesulfonic acid]",59.4,–

# More lines, now with the values ahead:
inhibition at 300 µM [%],Inhibition (%) (300 μM),Structure (SMILES)
83.1,–,"CCN(CC)CCN(C)Cc1cccc(C(=O)Nc2c(C)csc2C(=O)N/N=C/c2ccc(C)cc2)c1 [Compound 710, 3-{[(2-Diethylamino-ethyl)-methyl-amino]-methyl}-N-[4-methyl-2-(4-methyl-benzylidene-hydrazinocarbonyl)-thiophen-3-yl]-benzamide]"
81,–,"CCN(CC)CCN(C)Cc1cccc(C(=O)Nc2c(C)csc2C(=O)N/N=C/c2ccc(C)c(C)c2)c1 [Compound 711, 3-{[(2-Diethylamino-ethyl)-methyl-amino]-methyl}-N-[2-(3,4-dimethyl-benzylidene-hydrazinocarbonyl)-4-methyl-thiophen-3-yl]-benzamide]"
–,48.73,"CCN(CC)CCN(C)Cc1cccc(C(=O)Nc2c(C)csc2C(=O)N/N=C/c2ccc(OC)cc2)c1 [Compound 712, 3-{[(2-Diethylamino-ethyl)-methyl-amino]-methyl}-N-[2-(4-methoxy-benzylidene-hydrazinocarbonyl)-4-methyl-thiophen-3-yl]-benzamide]"
84.1,–,"COc1ccc(/C=N/NC(=O)c2cc(Br)ccc2NC(=O)c2ccc(CNCCN3CCOCC3)cc2)cc1 [Compound 715, N-[4-Bromo-2-(4-methoxy-benzylidene-hydrazinocarbonyl)-phenyl]-4-[(2-morpholin-4-yl-ethylamino)-methyl]-benzamide]"
85.8,–,"COc1cccc(/C=N/NC(=O)c2cc(Br)ccc2NC(=O)c2ccc(CNCCN3CCOCC3)cc2)c1 [Compound 716, N-[4-Bromo-2-(3-methoxy-benzylidene-hydrazinocarbonyl)-phenyl]-4-[(2-morpholin-4-yl-ethylamino)-methyl]-benzamide]"
53.5,–,"Cc1ccc(/C=N/NC(=O)c2cc(Br)ccc2NC(=O)c2ccc(CN3CCN(c4ccc(F)cc4)CC3)cc2)cc1C [Compound 717, N-[4-Bromo-2-(3,4-dimethyl-benzylidene-hydrazinocarbonyl)-phenyl]-4-[4-(4-fluoro-phenyl)-piperazin-1-ylmethyl]-benzamide]"
